Source: ChEMBL document CHEMBL3046341, “Synthesis of an indolizidinedione oxime inhibitor of acetyl-coenzyme a carboxylase (ACCase)” (Bioorg Med Chem Lett, 1994)

Assay: Inhibition of acetyl-coenzyme A carboxylase
Conditions: read-out: I50

## C=CCO/N=C(\CCC)C1=C(O)N2CCCCC2C1=O (stereo not drawn)
  IC50: 80 µM

## O=C1C(c2ccc(Cl)cc2Cl)=C(O)N2CCCCC12 (stereo not drawn)
  IC50: 15 µM

## CCO/N=C(\CC)C1=C(O)CC(c2c(C)cc(C)cc2C)CC1=O (stereo not drawn) [TRALKOXYDIM]
  IC50: 1 µM
